Results as given in BindingDB's records for doi:10.1016/j.bmcl.2013.08.111 (University of Michigan, 2013).
pIC50: −log10 of the molar value.

Biological target: Catenin beta-1/Transcription factor 7-like 2 (Homo sapiens, UniProt P35222+Q9NQB0)
Test: Inhibition of human TCF4/ flag epitope-tagged beta-catenin (unknown origin) interaction transfected in human HCT116 cells after 24 hrs by beta-galactosidase/luciferase reporter gene assay

Chain of Catenin beta-1/Transcription factor 7-like 2 (P35222 whole entry): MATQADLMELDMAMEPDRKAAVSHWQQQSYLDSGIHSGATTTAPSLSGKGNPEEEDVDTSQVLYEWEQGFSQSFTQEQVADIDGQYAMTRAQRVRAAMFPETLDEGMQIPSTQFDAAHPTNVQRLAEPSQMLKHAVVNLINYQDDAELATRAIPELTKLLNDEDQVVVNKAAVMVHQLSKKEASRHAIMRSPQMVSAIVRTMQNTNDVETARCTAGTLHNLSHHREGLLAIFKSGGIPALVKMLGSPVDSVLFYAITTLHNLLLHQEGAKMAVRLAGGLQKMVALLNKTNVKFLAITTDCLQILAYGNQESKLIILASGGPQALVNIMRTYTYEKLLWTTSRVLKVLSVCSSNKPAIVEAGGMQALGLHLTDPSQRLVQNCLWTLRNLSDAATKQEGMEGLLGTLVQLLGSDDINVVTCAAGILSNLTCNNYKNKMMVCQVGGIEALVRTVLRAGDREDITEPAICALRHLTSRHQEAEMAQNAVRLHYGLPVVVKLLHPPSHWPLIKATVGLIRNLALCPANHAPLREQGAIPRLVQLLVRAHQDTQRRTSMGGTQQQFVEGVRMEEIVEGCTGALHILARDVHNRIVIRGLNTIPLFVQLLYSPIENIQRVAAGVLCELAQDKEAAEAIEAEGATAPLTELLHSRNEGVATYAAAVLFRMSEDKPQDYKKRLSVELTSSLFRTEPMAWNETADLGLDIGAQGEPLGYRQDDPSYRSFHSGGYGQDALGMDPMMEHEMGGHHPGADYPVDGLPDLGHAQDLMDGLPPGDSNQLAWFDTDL
Chain of Catenin beta-1/Transcription factor 7-like 2 (Q9NQB0 whole entry): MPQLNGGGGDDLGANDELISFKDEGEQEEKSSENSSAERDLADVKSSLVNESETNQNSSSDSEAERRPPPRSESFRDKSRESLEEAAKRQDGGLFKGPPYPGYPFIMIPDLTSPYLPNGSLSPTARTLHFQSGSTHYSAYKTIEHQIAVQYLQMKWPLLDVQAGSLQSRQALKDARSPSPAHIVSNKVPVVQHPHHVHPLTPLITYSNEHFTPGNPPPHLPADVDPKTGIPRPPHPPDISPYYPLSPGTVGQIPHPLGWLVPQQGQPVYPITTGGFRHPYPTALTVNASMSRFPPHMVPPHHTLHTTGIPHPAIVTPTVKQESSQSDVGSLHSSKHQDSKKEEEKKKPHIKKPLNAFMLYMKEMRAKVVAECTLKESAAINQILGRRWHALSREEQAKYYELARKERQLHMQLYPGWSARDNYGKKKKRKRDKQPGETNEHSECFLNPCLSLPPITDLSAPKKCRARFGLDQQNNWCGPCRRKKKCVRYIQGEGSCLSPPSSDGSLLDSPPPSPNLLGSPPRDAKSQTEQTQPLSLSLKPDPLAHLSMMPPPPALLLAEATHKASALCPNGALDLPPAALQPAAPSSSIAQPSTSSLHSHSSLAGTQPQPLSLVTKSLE

pIC50: 6.52
Structure (SMILES): Cn1nc(-c2ccc(Cl)cc2)nc2c(=O)n(C)c(=O)nc1-2 [3-(4-Chloro-phenyl)-1,6-dimethyl-1H-pyrimido[5,4-e][1,2,4]triazine-5,7-dione]
